Experiments:
[1] = test system: ROS; test: Intracellular ROS by NQ-IND (DCF-DA fluorescence); assay type: cell-based
Excerpt: (§1) A tumor-targeted NIR small-molecule dye called NQ-THR, was made and specifically accumulated in cancer cells for tumor NIR imaging and simultaneously trigger tumoricidal oxidative stress by acting as an NQO1-bioactivatable substrate. This […] fluorophore provides sufficient specificity and imaging guidance to promote tumor-specific cell death, which can be used for the cancer treatment as well. NQ-IND, the precursor of NQ-THR is an NQO1 activated prodrug itself, which undergoes redox-cycling to produce ROS in brain tumor cells. The functional groups on NQ-IND are amenable to designing NQO1-activated imaging and therapeutic compounds. ES936 (FIG. 20A) is a highly specific, potent, mechanism-based NQO1 inhibitor (55). Inspired by the structure of ES936, the inventors prepared a compound NQ-IND (FIG. 20B) by removing the inhibitory nitroaryl group. NQ-IND was tested for its activity against NQO1 inhibition and cell viability. […]. On the other hand, NQ-IND attached with the NIR fluorescent dyes can be used to generate a theranostic fluorescent probe NQ-THR with both imaging and therapeutic capabilities.

[2] = test system: normal cells; test: Cell viability, normal cell lines (NQ-IND); assay type: cell-based
Excerpt: as §1

[3] = test system: cancer cell lines; test: Cell viability, cancer cell lines (NQ-IND); assay type: cell-based
Excerpt: as §1

[4] = target: T1, NQO1 (Homo sapiens, UniProt P15559); test: NQO1 activity inhibition; assay type: biochemical
T1 sequence (P15559 whole entry): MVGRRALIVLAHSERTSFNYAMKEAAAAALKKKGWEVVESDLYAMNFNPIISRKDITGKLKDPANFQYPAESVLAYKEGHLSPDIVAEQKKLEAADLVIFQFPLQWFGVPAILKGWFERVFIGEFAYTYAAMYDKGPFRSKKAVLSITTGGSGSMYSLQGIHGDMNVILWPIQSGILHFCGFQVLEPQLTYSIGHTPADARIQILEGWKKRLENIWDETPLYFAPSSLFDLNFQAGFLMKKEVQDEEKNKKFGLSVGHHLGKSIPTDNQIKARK
Excerpt: as §1

[5] = target: T2, Cys145 of MGMT (Homo sapiens, UniProt P16455); test: BG-PEG-biotin probe binding to MGMT; settings: UW228 cell extracts, 20 minutes
T2 construct: hexa-histidine; made in house; host or cells: E. coli
T2 sequence (P16455 1-207): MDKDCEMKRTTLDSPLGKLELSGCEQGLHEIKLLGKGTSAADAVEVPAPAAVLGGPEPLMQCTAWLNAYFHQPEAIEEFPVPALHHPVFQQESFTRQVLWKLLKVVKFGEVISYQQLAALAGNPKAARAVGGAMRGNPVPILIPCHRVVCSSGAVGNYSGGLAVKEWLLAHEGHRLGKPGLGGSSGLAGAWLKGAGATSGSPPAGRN
Method: Drug treatments and exposure times are shown in labels. […] Cells were trypsinized at times shown. Levels of MGMT activity and protein were determined in cell extracts. […] BG-PEG-biotin (5 μM) was then added and incubations continued for 15 minutes. The samples were electrophoresed, blotted and probed with Streptavidin-HRP to detect the protein-bound biotin (upper panel). […] Streptavidin-HRP was used to probe the resulting blot (upper panel).
MGMT protein and activity levels were analyzed during the depletion and repletion (FIG. 3B). […] MGMT protein levels as determined by western analyses during the depletion/repletion cycle were consistent with and fully reflected the DNA repair activity profiles (FIG. 3B, left panel).

[6] = test system: UW228 cells; test: Cell cycle analysis (flow cytometry) and apoptosis markers; assay type: cell-based, human; settings: 100 μM BCNU alone, 24 hours
Method: This was followed by 100 μM BCNU. […] After the treatments, cells were allowed to grow for 24 and 48 hours. At each of these time points cells were harvested and fixed in 70% ethanol. The cells were then washed with PBS and re-suspended in the presence of RNase (1 μg/ml) and propidium iodide (PI, 50 μg/ml) for 30 minutes. Cell cycle histograms were generated using a BD Accuri C6 flow cytometer.

[7] = target: T3, MGMT (Homo sapiens, UniProt P16455); test: Effect of proteasome inhibitor PS-341 on degradation of DSF-modified MGMT in UW228 cells; assay type: cell-based; parameters: endogenous in cells; host or cells: UW228, T98G
T3 sequence (P16455 1-207): T2 sequence (P16455 1-207)
Excerpt: The samples were immunoblotted and probed with MGMT antibodies (right panel). The densitometric quantitation of protein bands on the western blots is shown as a line graph on the left. […] Cell lysates were western blotted for the MGMT protein. […] Kinetics of DNA interstrand crosslinks formed in UW228 cells after treatment with […] BCNU or […] melphalan is shown. […] They were then exposed to BCNU or melphalan. At times specified, the cells were harvested, DNA isolated and the extent of interstrand crosslinking of DNA was determined using the ethidium bromide fluorescence assay. Values are mean+S.D. The results were significant at P<0.05. […] The cells were trypsinized at times indicated and analyzed by flow cytometry.
Since the MGMT inactivated by BG is degraded through ub-proteolysis, it was of interest to investigate the mode of elimination of DSF-modified MGMT protein. Therefore, first, we compared the in vitro degradation of DSF-treated and untreated rMGMT protein in rabbit reticulocyte lysates (RL), which are known to promote the proteasomal degradation. The control and DSF-modified MGMT proteins were incubated with RL in the presence of Mg++, ATP and ubiquitin at 37° C. The reaction mixtures were blotted and probed with MGMT antibodies. […] To show the involvement of the ub-proteolysis in cells a clinically used proteasome inhibitor. […]

[8] = test system: NQO1-proficient A549 tumors; test: NIR imaging of NQO1-proficient tumors in live mice; assay type: in vivo, nude mice; settings: one mg/kg intravenously
Excerpt: (§2) Engineering of NQO1 turn-on near-infrared (NIR) fluorophores and theranostic drugs thereof for pediatric brain cancer therapy and multimodality imaging. There is an imperative need for the development of cancer-specific imaging and therapeutic multifunctional or theranostic agents that can allow both imaging and drug delivery. Imaging in the near-infrared (NIR) range of 650-900 nm has been widely used in clinical procedures, because of deep tissue penetration, low autofluorescence, and reduced photon scattering. The inventors developed enzyme-activatable, cell-permeable, non-toxic, and biocompatible ‘turn-on’ NIR fluorescent probes (NIR-ASM, NQ-DCP) that provide accurate detection and visualization of endogenous NQO1 activity both in vitro and an in vivo preclinical model of lung and brain cancers. These fluorophores remain non-fluorescent until cleavage by NQO1 catalysis. In this study, subcutaneous tumors of A549 lung cancer (NQO1-positive) and MDAMB-231 breast cancer (NQO1 negative) were developed in the same animal on opposite flanks.
(§3) The animals were imaged in a IVIS imager at 500-640 nm.

[9] = test system: NQO1-deficient MDAMB-231 tumors; test: NIR imaging of NQO1-deficient tumors in live mice; assay type: in vivo, nude mice; settings: one mg/kg intravenously
Excerpt: as §2, §3

[10] = target: T3, MGMT; test: MGMT inhibition by GNQ in DAOY cells; assay type: cell-based; parameters: endogenous in cells; host or cells: DAOY
Excerpt: (§4) To further validate the MGMT deficiency, tumor cells exposed to GNQ can be treated with BCNU and the interstrand DNA crosslinking induced by BCNU, which can be quantitated by ethidium bromide fluorescence assay. Thus, it is possible to take advantage of these altered DNA repair pathways to combine GNQ with TMZ and PARP inhibitors and perform antitumor efficacy studies in orthotopic xenografts of pediatric brain cancers.
(§5) FIG. 21A to 21D show the inhibition of MGMT activity (FIG. 21A) and its degradation (FIG. 21B) induced by GNQ in DAOY cells. […] (FIG. 21D) GNQ potentiates the cytotoxicity of TMZ.

[11] = target: T1, NQO1; test: NQO1 substrate assay (NADH utilization); assay type: biochemical
Method: (§6) (FIG. 17A). The generation of ROS by GNQ was assessed by using fluorescent probes DCFDA and DHE (FIG. 17C). GNQ acts as NQO1 substrate in vitro. (FIG. 17B) Reduction pathways and subsequent reactions of GNQ. (FIG. 17C) Intracellular ROS levels were measured using DCFDA and DHE. (FIG. 17D) Anti-oxidants reversed the GNQ induced apoptosis. Antitumor efficacy of GNQ against intracranial DAOY medulloblastoma: The BBB permeability of GNQ was examined by pharmacokinetic analysis after IV injections in normal mice. […] Intracranial DAOY tumors were set up in nude mice and the tumor growth was assessed by quantitative bioluminescence. […] FIG. 18A, 18B show complete suppression of intracranial DAOY medulloblastoma growth by GNQ. GNQ was given IP at 25 mg/kg/d, 5 d/wk for about 4 weeks. […] (FIG. 18D) Ex-vivo bioluminescence from the isolated brains (FIG. 18E) Accumulation of GNQ in the brain when compared to plasma. (FIG. 18F) H&E staining of mouse brain sections showing the elimination of […] by GNQ. (FIG. 18G) Mean tumor volume radiance in the GNQ-treated group was compared with that in the control. Different substitutions (halogens, aryl, alkyl, and alkoxy groups) can be made to GNQ to append alkyl side chains to impart hydrophobicity to prepare BBB penetrating analogs.

[12] = test system: Reactive oxygen species (ROS); test: Intracellular ROS by GNQ (DCFDA and DHE); assay type: cell-based
Method: as §6

[13] = Pharmacokinetic analysis of GNQ after IV injections, BBB permeability; assay type: in vivo; settings: mouse, brain, normal mice, read-out: accumulation in the brain, % of plasma levels
Method: as §6

[14] = test system: DAOY cells; test: Potentiation of TMZ cytotoxicity by GNQ; assay type: cell-based
Excerpt: as §4, §5

[15] = test system: Normal astrocytes and NQO1-null cells; test: Cytotoxicity of GNQ against normal and NQO1-null cells; assay type: cell-based
Excerpt: (§7) (FIG. 15B) Cytotoxicity of GNQ against normal cells astrocytes and primary neurons. (FIG. 15C) Cytotoxicity against NQO1 null cell line MDA-MB-231. (FIG. 15D) Cytotoxicity values against normal and cancer cells in micromoles. […] Normal astrocytes and NQO1-null cells were not sensitive to GNQ.

[16] = test system: intracranial DAOY medulloblastoma; test: Intracranial DAOY medulloblastoma in nude mice treated with GNQ, bioluminescence; assay type: in vivo; settings: IP 25 mg/kg/d, 5 d/wk for about 4 weeks
Method: Intracranial glioblastoma xenograft development in nude mice: GBM cells stably expressing luciferase and GFP are suspended at 2×10^5 cells/5 μl sterile PBS injected into mouse brains. For developing […], mice are anesthetized and placed on a stereotactic apparatus. For developing breast cancer brain metastases xenografts, brain-seeking breast cancer cells are injected into the left ventricle of the heart of each mouse under anesthesia. Three weeks later the mice are imaged for intracranial Firefly luciferase activity. Mice with intracranial bioluminescence are randomly divided into different groups for drug treatments. Imaging is performed 10 minutes after i.p. injection of D-luciferin (2 mg per animal) with mice lying in the prone position. Besides the bioluminescence studies, the survival of the human glioblastoma cell grafted mice after drug administrations are closely followed to generate the Kaplan-Meir curves.
(FIG. 17A). The generation of ROS by GNQ was assessed by using fluorescent probes DCFDA and DHE (FIG. 17C). GNQ acts as NQO1 substrate in vitro. (FIG. 17B) Reduction pathways and subsequent reactions of GNQ. (FIG. 17C) Intracellular ROS levels were measured using DCFDA and DHE. (FIG. 17D) Anti-oxidants reversed the GNQ induced apoptosis. […] Intracranial DAOY tumors were set up in nude mice and the tumor growth was assessed by quantitative bioluminescence. […]

[17] = test system: brain tumor cells; test: Cytotoxicity of GNQ against brain tumor cells, NQO1 dependence; assay type: cell-based; settings: coincubation with ES936 or dicumarol
Excerpt: as §7

[18] = test system: GBM cell lines; test: Potentiation of TMZ in DMG-treated cells; assay type: cell-based
Excerpt: (§8) Synthesis of 2,4-Dimethylene glutaric acid (DMG), an α-ketoglutaric acid (α-KG) mimic for induction of epigenetic modifications: D-2 hydroxyglutarate (D-2HG) effectively replaces the normal metabolite, α-KG in 70% of low-grade pediatric gliomas with IDH mutations. α-KG is a substrate for TET1, TET2 DNA demethylases, and histone demethylases that maintain normal epigenetic homeostasis. D2-HG directly contributes to the CpG-island methylator phenotype (G-CIMP) and MGMT promoter methylation by competing with α-KG and inhibiting the demethylases. As an innovative strategy of understanding the glioma pathology and turning the tide against it, the inventors prepared DMG, a powerful α-KG derivative to replace the natural metabolite in epigenetic demethylase reactions; induction of such therapeutic methylation in non-IDH mutant GBMs was postulated to regress the tumors. […] DMG efficacy in xenografts and MGMT methylation therein are being tested.

[19] = test system: TET1, MGMT; test: Effect of DMG on TET1 and MGMT activities; assay type: cell-based; settings: GBM cell lines
Excerpt: as §8

[20] = test system: cell lines; test: Cytotoxicity of NO-aspirin for cell lines; assay type: cell-based
[21] = target: T3, MGMT; test: MGMT activity and protein in MGMT-proficient human cancer cell lines (HT29, T47D, HCT116); assay type: cell-based; parameters: endogenous in cells; host or cells: HT29, T47D, HCT116
[22] = test system: MGMT inactivated cells and xenografts; test: Antimetabolite cytotoxicity in MGMT inactivated cells and xenografts; assay type: cell-based
Excerpt: MGMT performs stoichiometric catalysis to remove mutagenic alkyl groups and dies in the process. […] Inhibition of MGMT by siRNA or 06-benzylguanine led to an S-phase block, perturbed DNA synthesis, and re-replication of the genome.

SMILES: COC1=CC(=O)c2c(c(CO)cn2C)C1=O [NQ-IND]
- ROS by DCF-DA fluorescence [1]: generate ROS
- effect on normal cells [2]: no effect on normal cells
- cancer cell proliferation [3]: inhibit cancer cell proliferation selectively
- effect on NQO1 activity [4]: did not affect the activity of NQO1

SMILES: COC1=CC(=O)c2c(c(COc3ccc([N+](=O)[O-])cc3)c(C)n2C)C1=O [ES936]
- effect on NQO1 activity [4]: completely inhibited the NQO1 activity

SMILES: CCN1C(=O)C=CC1=O [NEM, N-ethylmaleimide]
- BG-PEG-biotin labeling of MGMT in cell extracts after drug [5]: prevented the BG-labeling of the protein

SMILES: O=NN(CCCl)C(=O)NCCCl [BCNU, 1,3-bis-2-chloroethylnitrosourea]
- G2/M blockade, % of cells [6]: 33 % of cells

SMILES: CC(C)C[C@H](NC(=O)[C@H](Cc1ccccc1)NC(=O)c1cnccn1)B(O)O [PS341, bortezomib]
- decrease of MGMT degradation ([7]; 10 μM PS341 co-incubation with 50 μM DSF for 6 hours): 20%
- reduction in the loss of MGMT protein ([7]; pretreated 6 hours with 10 μM PS341 followed by 50 μM DSF for 12 hours): > 50%

SMILES: CC1=C(C)C(=O)C(C(C)(C)CC(=O)Nc2ccc(/C=C/C3=CC(=C(C#N)C#N)CC(C)(C)C3)cc2)=C(C)C1=O [NIR-ASM]
- time to fluorescent signal in tumors [8]: ≤ 5 min
- fluorescent signal in tumors [9]: totally negative after 3 hours

SMILES: O=C1NC2(c3ccccc31)c1ccccc1C1C(=O)c3cccc(O)c3C(=O)C12 (stereo not drawn) [GNQ]
- MGMT inhibition [10]: remarkably inhibited
- NADH utilized throughout the assay [11]: greater than 1 equiv. of NADH
- ROS generation [12]: generates Reactive oxygen species (ROS)
- Kp [13]: ≤ 0.11
- sensitization to TMZ [14]: sensitized to TMZ
- sensitivity to GNQ [15]: not sensitive
- body weight as a surrogate marker for toxicity [16]: No changes in body weight
- tumor bioluminescence [16]: complete loss of bioluminescence
- effect of NQO1 inhibitors on GNQ cytotoxicity [17]: reversed by coincubation with NQO1 inhibitors ES936 or dicumarol

SMILES: C=C(CC(=C)C(=O)O)C(=O)O [DMG, 2,4-Dimethylene glutaric acid]
- potentiation of TMZ [18]: 6-8 fold
- effect on TET1, MGMT activities [19]: curtailed TET1, MGMT activities

SMILES: CC(=O)Oc1ccccc1C(=O)Oc1cccc(CO[N+](=O)[O-])c1 [NCX-4016, 2-(acetyloxy) benzoic acid 3-[(nitrooxy)methyl]phenyl ester]
- IC50 [20]: > 500 µM
- MGMT protein degraded ([21]; 5 μM for 2 hours): 80-90%
- inhibition of MGMT activity ([21]; HT29, T47D, HCT116, 5-10 μM, within 1 hour of exposure): 90%
- MGMT protein regenerated ([21]; HT29 cells, 24 hours post-incubation in drug-free medium): More than 60%

SMILES: O=c1[nH]cc(F)c(=O)[nH]1 [5FU]
- increase in cytotoxicity in MGMT inactivated cells and xenografts [22]: 10-15 fold

From patent US20230045112A1, “DISULFIRAM AND OTHER REDOX-RELATED COMPOSITIONS FOR BRAIN TUMORS” (Texas Tech University System, priority 2014, published 2023)
